Assay results taken from patent publication US12023365B2, “Sustained release formulations of Crocus sativus” (COUNCIL OF SCIENTIFIC & INDUSTRIAL RESEARCH, priority 2017, dated 2024).

Assays:
[1] = literature (Asai 2005; Liu and Qian 2002); cited from earlier work
[2] = system: scopolamine induced memory deficit; assay: Scopolamine induced dementia, passive avoidance test; type: in vivo; conditions: Swiss albino mice, 2 mg/kg
Description: Animals were randomized to their body weight (n=6-8). All animals were then habituated to experimental apparatus (Passive avoidance instrument of make—UGO Basile Biological Research Apparatus Italy) prior to the experiment. For habituation, animals were placed gently in the light compartment of the apparatus. After 5 seconds guillotine door was opened and animal allowed entering the dark compartment without giving the shock. Animals that took more than 100 seconds to enter the dark room were eliminated from the experiments. For acquisition trial the animals were placed in light compartment and allowed to enter the dark compartment through guillotine door. As soon as the animal entered to the dark compartment, door was closed and animal was delivered a foot shock (0.5 mA current) immediately for the duration of 5 seconds. Animals were then removed from apparatus after 20 seconds and placed temporarily in its home cage. Repeated the same procedure (keeping the gap between acquisition trials to 5 minutes) till the animal remained in the light compartment for consecutive 120 seconds. Retention was recorded at day 2 without shock in dark chamber. Increase in transfer latency time from light to dark chamber indicated learning in animals. Rivastigmine was used as positive control in this study. […] Percentage (%) change in transfer latency as compared with control on retention trial was calculated. […]

Row | Structure (SMILES) | plasma half-life [1] | effect on latency time (positive control) [2]
1 | CC(/C=C/C=C(\C)C(=O)O)=C\C=C\C=C(C)\C=C\C=C(/C)C(=O)O [crocetin] | ~2 h | 
2 | CCN(C)C(=O)Oc1cccc([C@H](C)N(C)C)c1 [rivastigmine] |  | significant reduction in latency time
